Reference: patent publication US20060233887A1, “Bioactive material for use in stimulating vascularization” (The North West London Hospitals N H S Trust, priority 2003, published 2006)

Tested on: human endothelial cells
Experiment: In vitro angiogenesis assay (Angiogenesis Assay Kit, CD31 staining, AngioSys image analysis)
Assay type: cell-based
Details: 11 days
From the text: To evaluate the angiogenic growth factors secreted from fibroblasts in response to 45S5 Bioglass®, a commercial angiogenesis assay (Angiogenesis Assay Kit; TCS CellWorks Ltd) was used (Donovan D et al. Comparison of three in vitro human ‘angiogenesis’ assays with capillaries formed in vivo. Angiogenesis. 2001;4:113-121; Drinkwater S L et al Effect of venous ulcer exudates on angiogenesis in vitro. Br J Surg. 2002;89:709-713; Sengupta S et al. Thymidine phosphorylase induces angiogenesis in vivo and in vitro: an evaluation of possible mechanisms. Br J Pharmacol. 2003;139:219-231). The assay was performed according to the manufacturer's instructions.
In brief, on the day of delivery from the supplier, the medium in the culture plate was replaced with optimised medium (TCS CellWorks Ltd; supplied with the kit) alone (OM); OM:conditioned medium (medium collected from human colonic fibroblasts (CCD-18co) cultured on 0 g/cm^2 or 0.3125 mg/cm^2 45S5 Bioglass® for 72 hours) at 1:1 v/v; OM containing 2 ng/ml VEGF (positive control); or OM containing 20 μM suramin (negative control). Each treatment condition was repeated in quadruplicate. The culture medium was removed on days 4, 7 and 9 of the experiment and replaced with fresh pre-equilibrated (37° C. and 5% CO2) optimised medium plus each treatment. After 11 days, the endothelial cells were stained for CD31 (TCS CellWorks Ltd) using indirect immunocytochemistry as described in the manufacturer's instructions and allowed to air-dry. Each well was divided into quadrants on the underside of the plate. Photomicrographs of each quadrant were recorded with a Nikon Eclipse TE2000-S inverted photomicroscope fitted with a digital camera using a 4× objective lens. Image analysis software (AngioSys, Foster Findlay Associates, Newcastle Upon Tyne, UK) was used for automated scoring of the assay, providing quantitative measurements of endothelial tubule development (total vessel number, total tubule length and number of junctions), as previously described (Drinkwater S L et al Effect of venous ulcer exudates on angiogenesis in vitro. Br J Surg. 2002;89:709-713; Sengupta S et al. Thymidine phosphorylase induces angiogenesis in vivo and in vitro: an evaluation of possible mechanisms. Br J Pharmacol. 2003; 139:219-231).

[1] = 20 μM suramin, vs control endothelial cells

Compound | number of endothelial tubules [1] | number of tubule junctions [1] | total tubule length [1] | number of anastomosed endothelial tubules (micrographs) (2 ng/ml VEGF, vs optimised medium alone) | endothelial tubule development (tubules, tubule length, junctions) (2 ng/ml VEGF, positive control)
Cc1ccc(C(=O)Nc2ccc(S(=O)(=O)O)c3cc(S(=O)(=O)O)cc(S(=O)(=O)O)c23)cc1NC(=O)c1cccc(NC(=O)Nc2cccc(C(=O)Nc3cc(C(=O)Nc4ccc(S(=O)(=O)O)c5cc(S(=O)(=O)O)cc(S(=O)(=O)O)c45)ccc3C)c2)c1 [suramin] | reduced | reduced | reduced | – | –
VEGF | – | – | – | visible increase | Significant increases
